Experiments:
Mouse astrocyte cells = experiment: CXCL1 and IL-6 ELISA of astrocyte culture media after RAC treatment; assay type: cell-based
Description: To stimulate astrocytes into a reactive state found in aging and neurodegenerative diseases per previous publications (Liddelow et al., 2017; Barbar et al., 2020), a combination of the cytokines TNF-α and IL-1α, and complement factor C1q, were added at 30 ng/mL, 3 ng/mL, and 400 ng/mL, respectively, into astrocyte culture media to make 'reactive astrocyte cocktail' (RAC) media. […] Bachem, Cat. #4029110), BAY-11-7082 (50 μM; Abcam, Cat. #ab141228) or equal volume of vehicle (0.01% DMSO in PBS) (hereafter referred to as 'RAC treatment'). Cells in Groups 3-6 were treated with RAC for 24 hours, with or without the test compounds (n=4 per group). • Group 1: Control [CON] • Group 2: CON+BGE-105 (50 nM) [CON+105] • Group 3: Reactive control treated with RAC only [RAC] • Group 4: RAC+BGE-105 (50 nM) [RAC+105] • Group 5: RAC+Pyrm-Apelin-13 (50 nM) • Group 6: RAC+BAY-11-7082 (NF-κB inhibitor; 50 μM) [RAC+BAY] Media from each tested cell group was collected for cytokine release analysis. Cells were lysed for RNA collection and RT-PCR was performed to synthesis cDNA under standard conditions. Next, transcriptome analysis was performed to determine the expression level of astrocyte genes or astrocyte responsive genes. Changes of expression was normalized to β-actin (FIGS. 8 and 9). Exemplary biomarkers include CCL2, CXCL10, CXCL11, CXCL1, CXCL2, CXCL3, CXCL8, EDN1, […]3, CIS, CTRL, C3, CFB, VEGF, and IL-6. For analysis of cytokines secreted by astrocytes, culture media was collected after RAC treatment, centrifuged at 10,000 RPM for 5 minutes to pellet any debris, and supernatant was transferred to a new tube and assayed immediately or frozen at -80° C. For individual analysis of CXCL1 or IL-6 concentrations, cell culture supernatant was diluted 1:50 or 1:10, respectively, and assessed using mouse-specific ELISA kits per manufacturer's protocols (R&D Systems, Cat. #DY453 and #DY406).

26 month-old mice = experiment: Mouse Cytokine Array Panel on plasma of aged mice; assay type: in vivo; settings: 50 mg/kg BID P.O. one week, 10 of 40 cytokines detectable
Description: The mice were handled in accordance with principles and guidelines established by the “Guide for the Care and Use of Laboratory Animals” and overseen by the BioAge Lab's institutional animal care and use committee (IACUC). Mice were housed conventionally in a constant temperature (20-22° C.) and humidity (40%-60%) animal room with a 12/12 h light/dark cycle and free access to food and water. 26 month-old mice were randomized based on the body weight and body condition scores to two groups (vehicle or BGE-105, n=8). 4 month-old female mice were used as an additional control group (vehicle, n=4). Mice were administered P.O. vehicle or BGE-105 at 50 mg/kg (BID) for one week. After completion of dosing, blood samples were collected via retro-orbital bleeding under isoflurane anesthesia into K2-EDTA tubes to prevent coagulation. Mice were euthanized via transcardiac perfusion under isoflurane anesthesia. Whole blood was centrifuged to isolate plasma, which was stored at −80° C. until further experimentation.
For qualitative analysis of 40 different cytokines, plasma samples were assessed with the Mouse Cytokine Array Panel (R&D Systems) according to manufacturer's instructions. […] The optical of each dot on the array serves as a relative measure of cytokine abundance (e.g., a more intensely-stained dot denotes more cytokine present in the sample) and was analyzed with ImageJ software (NIH).

[1] = tested on: primary SOD1^G93A mouse astrocytes; experiment: Primary SOD1^G93A mouse astrocytes: cytokine release and NF-κB signaling; assay type: cell-based
Text: The study characterizes effects of BGE-105 on primary astrocytes derived from wildtype and SOD1^G93A mice in vitro. This includes measuring effects on gene expression, secretion of inflammatory cytokines, and glutamate uptake.
The study utilizes primary mouse astrocyte and neuron cultures generated from the SOD1^G93A mouse model of familial ALS as previously described (Lundquist et al. 2019. Exercise induces region-specific remodeling of astrocyte morphology and reactive astrocyte gene expression patterns in male mice. Journal of Neuroscience Research, 97(9), 1081-1094) with some modifications. Briefly, whole spinal cords are resected from PNDO-4 (postnatal day) SOD1^G93A+ pups and wildtype littermates. […]
Astrocytes from wildtype and SOD1^G93A mice are first studied in isolation to compare transcriptomic and cytokine release profiles. […] ACM (astrocyte-conditioned media) are analyzed for release of cytokines and neurotrophic factors using Mouse Proteome Profiler Arrays (R&D Systems), and commercially available ELISAs (for select cytokines from protein arrays). Astrocytic gene expression are analyzed by RT-qPCR, and astrocyte protein expression are analyzed by western blotting as previously described (Lundquist et al, 2022).

COc1cccc(OC)c1-n1c(NS(=O)(=O)[C@@H](C)[C@H](C)c2ncc(C)cn2)nnc1-c1cncc(C)c1 [BGE-105, (2S,3R)—N-(4-(2,6-dimethoxyphenyl)-5-(5-methyl-3-pyridinyl)-4H-1,2,4-triazol-3-yl)-3-(5-methyl-2-pyrimidinyl)-2-butanesulfonamide]
concentration of CXCL1 and IL-6 in media of control astrocytes (Mouse astrocyte cells; CON+105 (50 nM) versus CON): no or minimal impacts | astrocyte release of CXCL1 (FIG. 9) (Mouse astrocyte cells; RAC+105, BGE-105 50 nM, versus RAC, p=0.0032): greatly reduced | CXCL1 concentration/release (FIG. 12) (Mouse astrocyte cells; RAC+BGE-105 50 nM): about 40000 pg/ml | IL-6 concentration/release (FIG. 12) (Mouse astrocyte cells; RAC+BGE-105 50 nM): 5000 to 10000 pg/mL | astrocytic release of IL-6 (FIG. 9) (Mouse astrocyte cells; RAC+BGE-105, 50 nM, versus RAC, p=0.0008): reduced | average decrease of optical density of the detectable cytokines in plasma cytokine array (26 month-old mice): 28% | release of proinflammatory cytokines into astrocyte conditioned media (ACM) ([1]; 250 nM BGE-105, 24 hours): release less proinflammatory cytokines | NF-κB signaling activity ([1]; untreated versus BGE-105 treated SOD1^G93A astrocytes): changes to NF-κB signaling activity

— patent publication US20240041878A1, “APELIN RECEPTOR MODULATORS FOR TREATMENT OF A DISORDER OR DISEASE ASSOCIATED WITH BBB PERMEABILITY” (BioAge Labs, Inc., priority 2022, published 2024)
